Experimental data published in ChEMBL document CHEMBL4627343, “High throughput in vivo phenotypic screening for drug repurposing: Discovery of MLR-1023 a novel insulin sensitizer and novel Lyn kinase activator with clinical proof of concept” (Bioorg Med Chem, 2020).
pEC50: −log10 of the molar value.

Columns and labels:
[1] = Bioavailability in ip dosed […] administered twice daily; format: ADME, organism-based; details: in vivo
[2] = Toxicity in ip dosed […] administered twice daily; format: organism-based; details: in vivo
[3] = Drug uptake in human brain; format: ADME, tissue-based
[4] = Cmax in ip dosed […] administered twice daily; format: ADME, organism-based; parameters: route intraperitoneal; details: in vivo
[5] = target: Tyrosine-protein kinase Lyn (Homo sapiens, UniProt P07948); test: […] of Lyn (unknown origin)
Sequence of Tyrosine-protein kinase Lyn (P07948 whole entry): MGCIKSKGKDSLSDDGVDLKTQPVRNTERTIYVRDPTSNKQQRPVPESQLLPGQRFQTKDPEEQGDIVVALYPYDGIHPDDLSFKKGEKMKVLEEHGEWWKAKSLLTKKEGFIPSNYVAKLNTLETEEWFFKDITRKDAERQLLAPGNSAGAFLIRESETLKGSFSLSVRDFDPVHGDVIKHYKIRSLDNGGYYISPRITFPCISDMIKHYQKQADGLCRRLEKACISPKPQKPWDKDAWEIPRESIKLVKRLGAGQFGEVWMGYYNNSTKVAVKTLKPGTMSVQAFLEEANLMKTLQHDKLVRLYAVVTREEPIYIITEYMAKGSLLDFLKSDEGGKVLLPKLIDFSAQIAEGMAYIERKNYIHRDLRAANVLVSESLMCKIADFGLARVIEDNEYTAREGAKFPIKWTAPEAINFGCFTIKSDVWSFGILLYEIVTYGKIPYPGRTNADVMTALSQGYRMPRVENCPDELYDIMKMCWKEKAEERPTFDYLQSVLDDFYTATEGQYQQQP

[6] = AUC in ip dosed […] administered twice daily; format: ADME, organism-based; details: in vivo
[7] = Tmax in ip dosed […] administered twice daily; format: ADME, organism-based; details: in vivo

Cc1cccc(Oc2cnc(=O)[nH]c2)c1 [TOLIMIDONE] showed a bioavailability [1] of 53.9%, an MTD [2] of 100 mg/kg and a Drug uptake [3] of 1.3%. For the same compound, the Cmax [4] was 6.54 µg/mL, the pEC50 [5] was 7.20 and the AUC [6] was 4.78 µg·h/mL. For the same compound, the Tmax [7] was 15 min.
